In assay [1] the target is T1, human GLP-1R receptor (Homo sapiens, UniProt P43220, L260F).
T1 construct: expressed in transfected cells; host or cells: CHO-K1 (ATCC CCL-61)
Briefly: CHOK1 GLP-1R cAMP assay (HTRF). It counts as cell-based. The following applies: CHO-K1 cells stably expressing human GLP-1R. The protocol:
A cell line stably expressing the human GLP-1R receptor (NM_002062.5, including the naturally-occurring variant Leu260Phe) in a CHO-K1 (ATCC® CCL-61™) was used for assay.
GLP-1 receptor mediated agonist activity was determined in a cell-based assay measuring cyclic adenosine monophosphate (cAMP) levels in cells using Homogeneous Time-Resolved Fluorescence (HTRF) cAMP detection kit (CisBio catalog #62AM4PEC, cAMP Gs Dynamic range kit). The cAMP detection method is based on a competitive immunoassay, in which cAMP produced by the cells and cAMP labeled with the dye d2 compete for binding to a Europium-Cryptate-labeled anti-cAMP antibody. The specific HTRF signal is inversely proportional to the concentration of cAMP.
Compounds were added to individual well in 384 well-assay plates (Greiner #784076) using an Echo (LabCyte) dispenser from 10 mM stocks. Varying concentration of compounds were added to wells, and DMSO was used to normalize each well to a volume of 100 nL. A dose response curve of GLP-1(7-36)NH2 (Bachem H-6795) was included in each run. 5 μL of cAMP concentration response standards are applied in specified wells in the assay plates. Cryo-preserved cells are thawed and resuspended in assay buffer pre-heated to 37° C. (20 mM 2-[4-(2-hydroxyethyl)piperazin-1-yl]ethanesulfonic acid (HEPES) pH 7.4, lx Hank's Balanced Salt Solution (HBSS, Life Technologies #14065) supplemented with 0.1% (w/v) bovine serum albumin (Sigma, A-7030)). Cells were centrifuged at 250*g for 5 min at rt, and resuspended in room tempered assay buffer to a final density of 0.16*10^6 cell/mL, to deliver 800 cells/well. 5 μL of assay buffer with 1 mM 3-isobutyl-1-methylxanthin (IBMX; Sigma cat I-7018) was dispensed per well in assay plates using a multidrop combi (Thermo Scientific) subsequently 5 μL of cell suspension was distributed to relevant wells in the assay using a multidrop dispenser. Assay plates were incubated 20 min at rt.
Detection reagents, Europium-Cryptate-labeled anti-cAMP antibody and cAMP labeled with the dye d2, are diluted in lysis buffer, provided by the manufacturer. 5 μL of each detection reagent is supplemented to each assay well using a multidrop dispenser. Assay plates are incubated in the dark for at least one h. The HTRF signal is measured using the HTRF module (excitation: 337 nm, emission A: 665 nm and emission B: 620 nm) in Pherastar FSX (BMG Labtech).
Raw data were converted to pM cAMP using the cAMP standard curve included in each run. Converted data were further analyzed in Genedata Screener (Genedata) and EC50 determinations were made from agonist dose-response curves analyzed with a curve fitting program using a 4-parameter logistic dose response equation (Equation y=A+((B−A)/1+((C/x)^D))) where A is no stimulation, B is full stimulation, C is the EC50 and D is the Hill slope). The percent effect was determined relative to a saturating concentration of a full GLP-1R agonist (GLP-1(7-36)NH2 has 100% effect in this assay setup).
Background: Cyclic AMP is a second messenger, typically raised through Gs and lowered through Gi signalling.

Assay [2] has as its target T2, GLP-1R (Homo sapiens, UniProt P43220).
T2 construct: host or cells: EndoC-βH1
Briefly: EndoC cAMP accumulation assay (HTRF, EndoC-βH1 cells). In kind it is cell-based. The settings on record: EndoC-βH1 human pancreatic β cell line. An excerpt: EndoC cAMP Accumulation Assay
A HTRF cAMP assay (cAMP Gs dynamic kit; CisoBio Cat #62AM4PEJ) was used to identify agonists of GLP-1R in a pancreatic insulinoma cell line (EndoC-PH1). […] EndoC-βH1 cells have detectable GLP-1R messenger ribonucleic acid (mRNA) as detected by quantitative polymerase chain reaction (qPCR). […] The EndoC-βH1 cell line is a valid model of human beta cells and applicable for screenings to identify novel drug target candidates (Mol. Metab., 2018, 8, 144-157). CisBio HTRF cAMP kits are based on a competitive immunoassay using cryptate-labelled anti-cAMP antibody and d2-labeled cAMP. The detection kit is intended for the direct quantitative determination of cAMP. The specific signal (i.e. energy transfer) is inversely proportional to the concentration of cAMP in the standard or sample. Test compounds (10 mM in DMSO) were diluted into assay buffer (HBSS (Sigma #H8264) supplemented with 25 mM HEPES (Gibco #15630, pH 7.4), 0.1% BSA (Sigma #A3059) and 0.5 mM IBMX (Sigma #I7018) included fresh on the day of the assay) into 96 well U-bottom plates (Greiner #650201). Diluted compounds were transferred to ECHO source polypropelene plates (Labcyte #P-05525) and dose response curves were dispensed acoustically using ECHO 550 into black shallow-well u-bottom 384-well HTRF Assay Plates (Corning 4514).
Cryovials of EndoC-H1 (supplied at 1×10e^7 cells/vial) were used directly for screening. The cryovials and were removed from N2(l) and thawed rapidly in a 37° C. water bath. The cells were resuspended in assay buffer and centrifuged at 300 g for 5 min. Cells were resuspended in assay buffer at the appropriate concentration, typically at 12e5 cells per mL (3000 cells per well, dependent on cell batch) and 2.5 μL diluted cells were added to all wells of destination plate by Multidrop combi reagent dispenser (Thermofisher). The plates were incubated at rt for 30 min. The assay was stopped by adding 2.5 μL anti-cAMP cryptate solution to all wells and 2.5 μL cAMP-d2 solution (both diluted 1:20 in lysis buffer) to columns 1-22 by Combi drop. A volume of 2.5 μL cAMP-d2 solution was added to wells E23 to P24 and 2.5 μL lysis buffer added to wells A23 to D24 by multichannel pipette. The plates were incubated at rt for 1 h and read on an Envision plate reader using excitation wavelength of 320 nm and emission of 590 nm and 660 nm.
Raw data from Envision is converted to % DeltaF according to the manufacturer's instructions. Dose response curves are analysed via 4-Parameter Logistical Analysis and assay plate Z′ values obtained. Samples are graphed as percentage (%) activation plots compared to GIP (1-42, Bachem H-5645) with assay window defined by negative control as basal cell cAMP levels and positive control are defined by maximum GIP (82.5 nM) signal. GLP-1 (7-36 amide, Bachem H-6795) dose response curve was included on all plates.

The text below walks through data of patent US20250115612A1, “CERTAIN 2,5-DIAZABICYCLO[4.2.0]OCTANES AND OCTAHYDROFURO[3,4-B]PYRAZINES AS GLP-1 RECEPTOR MODULATORS” (ASTRAZENECA AB, priority 2021, published 2025).

T1 sequence (P43220 24-463 L260F): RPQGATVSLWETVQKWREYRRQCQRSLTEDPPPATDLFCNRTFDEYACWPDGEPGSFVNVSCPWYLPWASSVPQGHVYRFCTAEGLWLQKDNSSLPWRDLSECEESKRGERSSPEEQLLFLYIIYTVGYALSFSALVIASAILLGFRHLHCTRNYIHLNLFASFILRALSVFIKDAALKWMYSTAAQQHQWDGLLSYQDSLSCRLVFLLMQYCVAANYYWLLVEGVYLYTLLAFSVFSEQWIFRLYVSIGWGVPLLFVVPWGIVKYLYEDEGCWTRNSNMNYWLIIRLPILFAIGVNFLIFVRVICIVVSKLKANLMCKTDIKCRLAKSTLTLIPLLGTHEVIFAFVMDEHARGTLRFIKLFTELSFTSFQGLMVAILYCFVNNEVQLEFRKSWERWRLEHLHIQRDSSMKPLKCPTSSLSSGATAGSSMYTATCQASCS
T2 sequence (P43220 24-463): as the sequence (P43220 24-463 L260F) above, with F237L counted along it

Broadly, the EC50 is the concentration giving half of the maximal effect. Read a low EC50 as an effect from little substance. As for `N#Cc1ccc(COc2cccc(N3CCN(Cc4nc5cc(Cl)c(C(=O)O)cc5n4C[C@@H]4CCO4)[C@H]4CC[C@H]43)n2)c(F)c1` (single isomer, unassigned) [Example 7b], the EC50 came to 90 nM in assay [1] and 40 nM in assay [2].
The like results for `N#Cc1ccc(COc2cccc(N3CCN(Cc4nc5ccc(C(=O)O)c(Cl)c5n4C[C@@H]4CCO4)[C@H]4CC[C@H]43)n2)c(F)c1` (single isomer, unassigned) [Example 8a] were, in that order, 6.1 nM and 28 nM.
With `N#Cc1ccc(COc2cccc(N3CCN(Cc4nc5ccc(C(=O)O)c(Cl)c5n4C[C@@H]4CCO4)[C@H]4CC[C@H]43)n2)c(F)c1` (single isomer, unassigned) [Example 8b], the EC50 in assay [1] is 28 nM; in assay [2], 41 nM.
On to `N#Cc1ccc(COc2cccc(N3CCN(Cc4nc5ccc(C(=O)O)c(Cl)c5n4C[C@@H]4CCO4)[C@H]4CC[C@H]43)n2)c(F)c1` (single isomer, unassigned) [Example 8c], for which the values for the EC50 in assay [1] and in assay [2] were 140 nM and 620 nM, respectively.
The like results for `N#Cc1ccc(COc2cccc(N3CCN(Cc4nc5cc(F)c(C(=O)O)cc5n4C[C@@H]4CCO4)[C@H]4CC[C@@H]43)n2)c(F)c1` (single isomer, unassigned) [Example 9a] were, in that order, 180 nM and 69 nM.
The like results for `CCn1cncc1Cn1c(CN2CCN(c3cccc(OCc4ccc(Cl)cc4F)n3)[C@H]3CC[C@@H]32)nc2c(OC)cc(C(=O)O)cc21` (single isomer, unassigned) [Example 12b] were, in that order, 8.9 nM and 16 nM.
The like results for `COc1cc(C(=O)O)cc2c1nc(CN1CCN(c3cccc(OCc4ccc(Cl)cc4F)n3)[C@@H]3COC[C@@H]31)n2C[C@@H]1CCO1` (single isomer, unassigned) [Example 16b, 2-(((4aR*,7aS*)-4-(6-((4-Chloro-2-fluorobenzyl)oxy)pyridin-2-yl)hexahydrofuro[3,4-b]pyrazin-1(2H)-yl)methyl)-4-methoxy-1-(((S)-oxetan-2-yl)methyl)-1H-benzo[d]imidazole-6-carboxylic acid] were, in that order, 64 nM and 120 nM.
In the case of `O=C(O)c1cc(F)c2nc(CN3CCN(c4cccc(OCc5ccc(Cl)cc5F)n4)[C@@H]4COC[C@@H]43)n(C[C@H]3CCOC3)c2c1` (single isomer, unassigned) [Example 18a], the results for the EC50 in assay [1] and in assay [2] were 110 nM and 89 nM, respectively.
As to `O=C(O)c1cc(F)c2nc(CN3CCN(c4cccc(OCc5ccc(Cl)cc5F)n4)[C@@H]4COC[C@@H]43)n(C[C@H]3CCOC3)c2c1` (single isomer, unassigned) [Example 18b], the figures for the EC50 in assay [1] and in assay [2] were 57 nM and 15 nM, respectively.
`O=C(O)c1cc(F)c2nc(CN3CCN(c4cccc(OCc5ccc(Cl)cc5F)n4)[C@@H]4COC[C@@H]43)n(C[C@@H]3CCO3)c2c1` (single isomer, unassigned) [Example 19b, 2-(((4aR*,7aS*)-4-(6-((4-Chloro-2-fluorobenzyl)oxy)pyridin-2-yl)hexahydrofuro[3,4-b]pyrazin-1(2H)-yl)methyl)-4-fluoro-1-(((S)-oxetan-2-yl)methyl)-1H-benzo[d]imidazole-6-carboxylic acid]: the EC50 is 120 nM in assay [1] and 290 nM in assay [2].
For the molecule `O=C(O)c1ccc2nc(CN3CCN(c4cccc(OCc5ccc(Cl)cc5F)n4)[C@@H]4COC[C@@H]43)n(Cc3cocn3)c2c1` (single isomer, unassigned) [Example 20], the results for the EC50 in assay [1] and in assay [2] were 35 nM and 37 nM, respectively.
The like results for `O=C(O)c1ccc2nc(CN3CCN(c4cccc(OCc5ccc(Cl)cc5F)n4)[C@@H]4COC[C@@H]43)n(Cc3cccnc3)c2c1` (single isomer, unassigned) [Example 21] were, in that order, 74 nM and 71 nM.
The like results for `O=C(O)c1cc(Cl)c2nc(CN3CCN(c4cccc(OCc5ccc(Cl)cc5F)n4)[C@@H]4COC[C@@H]43)n(C[C@@H]3CCO3)c2c1` (single isomer, unassigned) [Example 22a, 4-Chloro-2-(((4aR*,7aS*)-4-(6-((4-chloro-2-fluorobenzyl)oxy)pyridin-2-yl)hexahydrofuro[3,4-b]pyrazin-1(2H)-yl)methyl)-1-(((S)-oxetan-2-yl)methyl)-1H-benzo[d]imidazole-6-carboxylic acid] were, in that order, 1 nM and 6.6 nM.
In the case of `O=C(O)c1cc(Cl)c2nc(CN3CCN(c4cccc(OCc5ccc(Cl)cc5F)n4)[C@@H]4COC[C@@H]43)n(C[C@@H]3CCO3)c2c1` (single isomer, unassigned) [Example 22b, 4-Chloro-2-(((4aR*,7aS*)-4-(6-((4-chloro-2-fluorobenzyl)oxy)pyridin-2-yl)hexahydrofuro[3,4-b]pyrazin-1(2H)-yl)methyl)-1-(((S)-oxetan-2-yl)methyl)-1H-benzo[d]imidazole-6-carboxylic acid], the EC50 in assay [1] was 150 nM; in assay [2] it was 270 nM.
For the molecule `Cc1nccn1CCn1c(CN2CCN(c3cccc(OCc4ccc(Cl)cc4F)n3)[C@@H]3COC[C@@H]32)nc2c(F)cc(C(=O)O)cc21` (single isomer, unassigned) [Example 23], the results for the EC50 in assay [1] and in assay [2] were 170 nM and 110 nM, respectively.
The like results for `Cc1nccn1CCn1c(CN2CCN(c3cccc(OCc4ccc(Cl)cc4F)n3)[C@@H]3COC[C@@H]32)nc2c(Cl)cc(C(=O)O)cc21` (single isomer, unassigned) [Example 24] were, in that order, 250 nM and 340 nM.
Consider `Cc1nccn1CCn1c(CN2CCN(c3cccc(OCc4ccc(Cl)cc4F)n3)[C@@H]3COC[C@@H]32)nc2ccc(C(=O)O)cc21` (single isomer, unassigned) [Example 25a], for which the values for the concentration for a half-maximal effect (EC50) in assay [1] and in assay [2] were 110 nM and 170 nM, respectively.
The like results for `Cc1nccn1CCn1c(CN2CCN(c3cccc(OCc4ccc(Cl)cc4F)n3)[C@@H]3COC[C@@H]32)nc2ccc(C(=O)O)cc21` (single isomer, unassigned) [Example 25b] were, in that order, 250 nM and 1100 nM.
